Results from PubChem BioAssay AID1918999 (Molecular Pharmacology Branch, DTP, NCI, 2023).

Tested on: 556581-035-R-J1-PDC complex spheroid growth
Experiment: Anticancer human tumor 556581-035-R-J1-PDC patient-derived ovarian carcinoma cell line growth inhibition [AhR]
Settings: for IC50: curve of first compound; for viability, T/C: stronger effect = lower value
Procedure, shortened: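 Agents were dosed in half-log steps down from roughly clinical Cmax, or from 10 microM where Cmax was unknown, alone and with AhR antagonists. Read-out: percent test/control growth of tumor spheroids containing HUVEC and MSC stromal cells.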

[1] = second compound 0.1 µM, first compound 0.00316 µM
[2] = second compound 0.1 µM, first compound 0.01 µM
[3] = second compound 0.1 µM, first compound 0.0316 µM
[4] = second compound 0.1 µM, first compound 0.1 µM
[5] = second compound 0.1 µM, first compound 0.316 µM
[6] = second compound 0.1 µM, first compound 1 µM
[7] = second compound 0.316 µM, first compound 0.00316 µM
[8] = second compound 0.316 µM, first compound 0.01 µM
[9] = second compound 0.316 µM, first compound 0.0316 µM
[10] = second compound 0.316 µM, first compound 0.1 µM
[11] = second compound 0.316 µM, first compound 0.316 µM
[12] = second compound 0.316 µM, first compound 1 µM
[13] = second compound 1 µM, first compound 0.00316 µM
[14] = second compound 1 µM, first compound 0.01 µM
[15] = second compound 1 µM, first compound 0.0316 µM
[16] = second compound 1 µM, first compound 0.1 µM
[17] = second compound 1 µM, first compound 0.316 µM
[18] = second compound 1 µM, first compound 1 µM
[19] = second compound 3.16 µM, first compound 0.00316 µM
[20] = second compound 3.16 µM, first compound 0.01 µM
[21] = second compound 3.16 µM, first compound 0.0316 µM
[22] = second compound 3.16 µM, first compound 0.1 µM
[23] = second compound 3.16 µM, first compound 0.316 µM
[24] = second compound 3.16 µM, first compound 1 µM
[25] = second compound 10 µM, first compound 0.00316 µM
[26] = second compound 10 µM, first compound 0.01 µM
[27] = second compound 10 µM, first compound 0.0316 µM
[28] = second compound 10 µM, first compound 0.1 µM
[29] = second compound 10 µM, first compound 0.316 µM
[30] = second compound 10 µM, first compound 1 µM
[31] = second compound 0.1 µM, first compound 3.16 µM
[32] = second compound 0.1 µM, first compound 10 µM
[33] = second compound 0.316 µM, first compound 3.16 µM
[34] = second compound 0.316 µM, first compound 10 µM
[35] = second compound 1 µM, first compound 3.16 µM
[36] = second compound 1 µM, first compound 10 µM
[37] = second compound 3.16 µM, first compound 3.16 µM
[38] = second compound 3.16 µM, first compound 10 µM
[39] = second compound 10 µM, first compound 3.16 µM
[40] = second compound 10 µM, first compound 10 µM
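For viability, T/C in this document: compound exposure lasted 7 days; 100% = DMSO vehicle control growth.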

For CC1COCCN1c1cc(-c2ccnn2C)c2ccnc(-c3ccn[nH]3)c2n1 (stereo not given) + Cc1ccccc1N=Nc1ccc(NC(=O)c2ccnn2C)c(C)c1, the IC50 (second compound 0.1 µM) was 894 nM, the IC50 (second compound 0.316 µM) was > 1000 nM and the IC50 (second compound 1 µM) was > 1000 nM. It also gave an IC50 (second compound 3.16 µM) of 752 nM, an IC50 (second compound 10 µM) of 883 nM and a viability, T/C [1] of 104%. It also gave a viability, T/C [2] of 103%, a viability, T/C [3] of 101% and a viability, T/C [4] of 84.8%. The viability, T/C [5] was 61.5%, the viability, T/C [6] was 48.6% and the viability, T/C [7] was 102%. For the same molecule, the viability, T/C [8] was 119%, the viability, T/C [9] was 101% and the viability, T/C [10] was 76.8%. For the same molecule, the viability, T/C [11] was 63.9%, the viability, T/C [12] was 51.8% and the viability, T/C [13] was 99.6%. It also gave a viability, T/C [14] of 108%, a viability, T/C [15] of 99.5% and a viability, T/C [16] of 80%. For the same molecule, the viability, T/C [17] was 62.6%, the viability, T/C [18] was 54.9% and the viability, T/C [19] was 105%. The viability, T/C [20] was 103%, the viability, T/C [21] was 94.8% and the viability, T/C [22] was 72.6%. It also gave a viability, T/C [23] of 63.8%, a viability, T/C [24] of 45.4% and a viability, T/C [25] of 88.9%. For the same molecule, the viability, T/C [26] was 104%, the viability, T/C [27] was 85.3% and the viability, T/C [28] was 73.3%. It also gave a viability, T/C [29] of 61% and a viability, T/C [30] of 47.9%.
CC1COCCN1c1cc(C2(S(C)(=N)=O)CC2)nc(-c2ccnc3[nH]ccc23)n1 (stereo not given) + CC(CO)NC(=O)c1cc(-c2ccc(Cl)cc2)nn(-c2cnn(C)c2)c1=O was tested, and the IC50 (second compound 0.1 µM) was > 10000 nM, the IC50 (second compound 0.316 µM) was > 10000 nM and the IC50 (second compound 1 µM) was > 10000 nM. The IC50 (second compound 3.16 µM) was > 10000 nM, the IC50 (second compound 10 µM) was > 10000 nM and the viability, T/C [3] was 116%. The viability, T/C [4] was 113%, the viability, T/C [5] was 101% and the viability, T/C [6] was 92%. It also gave a viability, T/C [31] of 86.2%, a viability, T/C [32] of 69.1% and a viability, T/C [9] of 97.1%. The viability, T/C [10] was 113%, the viability, T/C [11] was 105% and the viability, T/C [12] was 90.1%. For the same molecule, the viability, T/C [33] was 81.4%, the viability, T/C [34] was 70.2% and the viability, T/C [15] was 111%. The viability, T/C [16] was 105%, the viability, T/C [17] was 116% and the viability, T/C [18] was 98.2%. It also gave a viability, T/C [35] of 78.2%, a viability, T/C [36] of 67.6% and a viability, T/C [21] of 105%. The viability, T/C [22] was 104%, the viability, T/C [23] was 107% and the viability, T/C [24] was 89.4%. It also gave a viability, T/C [37] of 83.5%, a viability, T/C [38] of 71.8% and a viability, T/C [27] of 118%. For the same molecule, the viability, T/C [28] was 119%, the viability, T/C [29] was 110% and the viability, T/C [30] was 101%. For the same molecule, the viability, T/C [39] was 81.2% and the viability, T/C [40] was 72.5%.
O=C(C=Cn1cnc(-c2cc(C(F)(F)F)cc(C(F)(F)F)c2)n1)NNc1cnccn1 + Cc1ccccc1N=Nc1ccc(NC(=O)c2ccnn2C)c(C)c1 was tested, and the IC50 (second compound 0.1 µM) was > 3000 nM, the IC50 (second compound 0.316 µM) was 1750 nM and the IC50 (second compound 1 µM) was > 3000 nM. For the same molecule, the IC50 (second compound 3.16 µM) was > 3000 nM, the IC50 (second compound 10 µM) was > 3000 nM and the viability, T/C (second compound 0.1 µM, first compound 0.00949 µM) was 100%. The viability, T/C (second compound 0.1 µM, first compound 0.03 µM) was 99.8%, the viability, T/C (second compound 0.1 µM, first compound 0.0949 µM) was 80.3% and the viability, T/C (second compound 0.1 µM, first compound 0.3 µM) was 78.5%. The viability, T/C (second compound 0.1 µM, first compound 0.949 µM) was 72.5%, the viability, T/C (second compound 0.1 µM, first compound 3 µM) was 54.4% and the viability, T/C (second compound 0.316 µM, first compound 0.00949 µM) was 106%. The viability, T/C (second compound 0.316 µM, first compound 0.03 µM) was 92.7%, the viability, T/C (second compound 0.316 µM, first compound 0.0949 µM) was 91% and the viability, T/C (second compound 0.316 µM, first compound 0.3 µM) was 73.3%. It also gave a viability, T/C (second compound 0.316 µM, first compound 0.949 µM) of 60.7%, a viability, T/C (second compound 0.316 µM, first compound 3 µM) of 40.8% and a viability, T/C (second compound 1 µM, first compound 0.00949 µM) of 93%. It also gave a viability, T/C (second compound 1 µM, first compound 0.03 µM) of 93.4%, a viability, T/C (second compound 1 µM, first compound 0.0949 µM) of 85.5% and a viability, T/C (second compound 1 µM, first compound 0.3 µM) of 84.4%. The viability, T/C (second compound 1 µM, first compound 0.949 µM) was 72.5%, the viability, T/C (second compound 1 µM, first compound 3 µM) was 49.7% and the viability, T/C (second compound 3.16 µM, first compound 0.00949 µM) was 80.3%. For the same molecule, the viability, T/C (second compound 3.16 µM, first compound 0.03 µM) was 87.7%, the viability, T/C (second compound 3.16 µM, first compound 0.0949 µM) was 79.8% and the viability, T/C (second compound 3.16 µM, first compound 0.3 µM) was 68.4%. The viability, T/C (second compound 3.16 µM, first compound 0.949 µM) was 72.2%, the viability, T/C (second compound 3.16 µM, first compound 3 µM) was 60.4% and the viability, T/C (second compound 10 µM, first compound 0.00949 µM) was 81.1%. For the same molecule, the viability, T/C (second compound 10 µM, first compound 0.03 µM) was 81.6%, the viability, T/C (second compound 10 µM, first compound 0.0949 µM) was 82.7% and the viability, T/C (second compound 10 µM, first compound 0.3 µM) was 82.4%. For the same molecule, the viability, T/C (second compound 10 µM, first compound 0.949 µM) was 71.9% and the viability, T/C (second compound 10 µM, first compound 3 µM) was 56.9%.
With COc1cccc2c1C(=O)c1c(O)c3c(c(O)c1C2=O)CC(O)(C(=O)CO)CC3OC1CC(N)C(O)C(C)O1 (stereo not given) + CC(CO)NC(=O)c1cc(-c2ccc(Cl)cc2)nn(-c2cnn(C)c2)c1=O the IC50 (second compound 0.1 µM) was 393 nM, the IC50 (second compound 0.316 µM) was 396 nM and the IC50 (second compound 1 µM) was 445 nM. It also gave an IC50 (second compound 3.16 µM) of 375 nM, an IC50 (second compound 10 µM) of 361 nM and a viability, T/C [3] of 89.7%. It also gave a viability, T/C [4] of 80.7%, a viability, T/C [5] of 58.7% and a viability, T/C [6] of 16.1%. For the same molecule, the viability, T/C [31] was 3.94%, the viability, T/C [32] was 3.84% and the viability, T/C [9] was 83.9%. It also gave a viability, T/C [10] of 79.3%, a viability, T/C [11] of 58.1% and a viability, T/C [12] of 17.5%. For the same molecule, the viability, T/C [33] was 4.59%, the viability, T/C [34] was 3.12% and the viability, T/C [15] was 85%. The viability, T/C [16] was 87.3%, the viability, T/C [17] was 64.8% and the viability, T/C [18] was 14.5%. For the same molecule, the viability, T/C [35] was 3.33%, the viability, T/C [36] was 3.66% and the viability, T/C [21] was 75.8%. The viability, T/C [22] was 79.4%, the viability, T/C [23] was 55.9% and the viability, T/C [24] was 13.1%. For the same molecule, the viability, T/C [37] was 4.03%, the viability, T/C [38] was 3.23% and the viability, T/C [27] was 88.9%. The viability, T/C [28] was 87%, the viability, T/C [29] was 56% and the viability, T/C [30] was 3.3%. The viability, T/C [39] was 1.46% and the viability, T/C [40] was 3.96%.
For Cn1ncnc1C1c2n[nH]c(=O)c3cc(F)cc(c23)NC1c1ccc(F)cc1 (stereo not given) + CC(CO)NC(=O)c1cc(-c2ccc(Cl)cc2)nn(-c2cnn(C)c2)c1=O, the IC50 (second compound 0.1 µM) was > 100 nM, the IC50 (second compound 0.316 µM) was > 100 nM and the IC50 (second compound 1 µM) was > 100 nM. The IC50 (second compound 3.16 µM) was > 100 nM, the IC50 (second compound 10 µM) was > 100 nM and the viability, T/C (second compound 0.1 µM, first compound 0.000316 µM) was 109%. The viability, T/C (second compound 0.1 µM, first compound 0.001 µM) was 104%, the viability, T/C [1] was 101% and the viability, T/C [2] was 103%. For the same molecule, the viability, T/C [3] was 97.3%, the viability, T/C [4] was 99.7% and the viability, T/C (second compound 0.316 µM, first compound 0.000316 µM) was 97%. For the same molecule, the viability, T/C (second compound 0.316 µM, first compound 0.001 µM) was 111%, the viability, T/C [7] was 137% and the viability, T/C [8] was 113%. The viability, T/C [9] was 99.3%, the viability, T/C [10] was 93.4% and the viability, T/C (second compound 1 µM, first compound 0.000316 µM) was 112%. For the same molecule, the viability, T/C (second compound 1 µM, first compound 0.001 µM) was 105%, the viability, T/C [13] was 113% and the viability, T/C [14] was 105%. For the same molecule, the viability, T/C [15] was 98.7%, the viability, T/C [16] was 99.6% and the viability, T/C (second compound 3.16 µM, first compound 0.000316 µM) was 114%. The viability, T/C (second compound 3.16 µM, first compound 0.001 µM) was 110%, the viability, T/C [19] was 105% and the viability, T/C [20] was 93.3%. The viability, T/C [21] was 101%, the viability, T/C [22] was 89.6% and the viability, T/C (second compound 10 µM, first compound 0.000316 µM) was 105%. The viability, T/C (second compound 10 µM, first compound 0.001 µM) was 110%, the viability, T/C [25] was 110% and the viability, T/C [26] was 112%. The viability, T/C [27] was 92.6% and the viability, T/C [28] was 97.2%.
